Assay results from patent publication US10854312B2, “Selective peptide antagonists” (BIONIZ, LLC, priority 2013, dated 2020).
Entries after “also recorded” stand apart in the source; their conditions may differ. No end group written: not given here.

Legend:
human IL-2 = test: CTLL-2 proliferation assay (WST-1), IL-2; assay type: cell-based; conditions: murine CTLL-2 cells, 1 nM human IL-2, BNZ132-1 50 and 500 nM, WST-1 OD450
Description: FIG. 6A-FIG. 6E presents inhibitory spectrum of BNZ132-1 over γc- and non-γc-cytokines. […] Neutralizing antibodies against each cytokine (R & D systems, 5 μg ml^−1) were included as controls. After 20 h, the cells were pulsed with WST-1 (Clontech) and OD450 of each well was measured after 6 h. A 19-mer scrambled peptide was used as a negative control at 5 μM. The experiments were conducted in triplicate (applies to all experiments in FIG. 6A-FIG. 6E). The result represents one of at least three independent experiments (applies to all experiments in FIG. 6A-FIG. 6E). […] In PT-18 proliferation assay, PT-18β or PT-18h21Rα cells were withdrawn of mouse IL-3 for 12 h before the experiment. Cells were then incubated with 1 nM of mouse IL-4, mouse IL-9, or mouse IL-21 in the presence or absence of the indicated doses (μM) of BNZ132-1. Neutralizing antibodies to each cytokine (5 μg ml^−1, except for anti-mouse IL-21 polyclonal antibody which was used at 15 μg ml−1) and a scrambled control peptide (5 μM) were included as negative controls. WST-1 assay was conducted as described above. […] In PT-18 h21Rα survival assay, PT-18h21Rα cells are described in the text. […] Both parental and hIL-21Rα positive PT-18 cells were washed and incubated without IL-3 for 12 h before the assay. […] The Y-axis represents the cpm (count per minute) values measured by a β-counter. […]

human Flt-3 ligand = human Flt-3 ligand (Homo sapiens, UniProt P49771); test: PT-18β proliferation assay (3H-thymidine), non-γc cytokine Flt-3 ligand; assay type: cell-based; conditions: 1 nM human Flt-3 ligand, 15 μM BNZ132-1
human Flt-3 ligand, sequence (P49771 27-235): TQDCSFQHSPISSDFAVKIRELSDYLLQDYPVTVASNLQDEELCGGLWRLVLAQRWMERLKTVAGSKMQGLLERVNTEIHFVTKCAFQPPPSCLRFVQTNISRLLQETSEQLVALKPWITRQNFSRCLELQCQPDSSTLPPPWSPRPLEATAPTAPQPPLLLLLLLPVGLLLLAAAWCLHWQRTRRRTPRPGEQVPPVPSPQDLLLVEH

IKEFLQRFIHIVQSIINTS [BNZ132-1]
inhibition of IL-2-induced proliferation of CTLL-2 cells (human IL-2): inhibited IL-2 and IL-15 with an equal efficacy; also recorded: efficiently inhibits; also recorded: inhibition of IL-2 and IL-15 | inhibition of Flt3-L-induced proliferation of PT-18β cells (human Flt-3 ligand): did not inhibit; also recorded: no inhibition; also recorded: no inhibition of non-γc cytokines
